Two compounds from patent US20170099837A1, “EXTRACTS OF AGRICULTURAL HUSKS USED TO MODIFY THE METABOLISM OF PLANTS” (priority 2014, published 2017) can be followed below.

For data set [1], the system named is pepper bell seedlings. Nature of the data set: Protection of pepper bell seedlings exposed to saline stress. As to the method: Protection offered by the composition in plants exposed to saline stress was observed through an assay with pepper bell seedlings, cultivar “npiter”. These seedlings were placed in germination plates with peat-moss as substrate and kept during a 40-day period and then transferred to 5-L pots. Adaptation period before treatment commencement consisted of daily irrigation during 10 days reaching saturation by a nutrient formulation based on 100-50-100 N-P-K at 1 mg/L concentrations. Used treatments in the assay were prepared in 100 L containers where NaCl was added until reaching a concentration of 25 mM/L, plus nutrients based on Hoagland formula (50% of its concentration). Irrigation frequency with this nutrient solution was every day, applying a 350 cm^3 volume per plant during the whole assay. Composition application was carried out once per week at a dose of […]. Based on a daily irrigation volume of 350 mL/plant, weekly application of the composition was 0.6 cm^3 per 7 days in 350 cm^3 of irrigation water per plant.

Data set [2] relates to Daphnia magna. Briefly: 48-h static toxicity test on Daphnia magna. The settings on record: in vivo. The protocol:
In contrast, pure nitrated phenolic compounds such as p-nitrofenol show toxicities up to 125 times higher, measured as mean lethal concentration (CL50) over Daphnia magna or as concentration without observed effect (CSEO by its Spanish acronym).
The study was carried out to determine composition toxicity on Daphnia magna in a 48-h static test. Test concentrations were determined through a range test. Concentrations used for the definitive test were 62.5, 125, 250, 500 and 1000 mg/L, administered to the system, Daphnia magna, in fresh water. Three copies of 10 organisms were used for each concentration test. Control containers were used, placing 10 daphnides in fresh water without the composition. Dissolved oxygen, temperature, conductivity and pH were assessed at the beginning of the test and after each dose. Observations for immobility were made daily in a test chamber. The test ended after 48±1 hour of exposure. The concentration without observed effect (CSEO) of the composition was 250 mg/L and CE50 (Mean Effective Concentration) was determined higher than 1000 mg/L.

The mark [3] stands for this setting: 25 mM NaCl irrigation, composition 0.6 mL per plant per day applied weekly.

Take `[Cl-].[Na+]` [25 mM NaCl, NaCl]: in data set [1] (setting [3]), the “Foliar area (cm^2/plant)” value is given as 1050 cm^2/plant and the Leaves per plant is given as 50. Besides, in data set [1] (treatment with 25 mM NaCl), the “reduction of number of leaves per plant” value was “about 27%”.

`O=[N+]([O-])c1ccc(O)cc1` [p-nitrofenol]: in data set [2], the “toxicity relative to the composition, measured as mean lethal concentration (CL50) over Daphnia magna or as CSEO” value is “up to 125 times higher”.
